Laboratory results as given in US20030118627A1 (DABUR RESEARCH FOUNDATION, priority 2001, published 2003).

Key:
MOLT 4 = assay: MTT cytotoxicity assay, MOLT 4 leukemia; assay type: cell-based; details: Homo sapiens, MOLT 4 Leukemia, read-out: Percent cytotoxicity; for cytotoxicity at 1000 µM: 1.0 mM; for cytotoxicity at 2500 µM: 2.5 mM; for cytotoxicity at 4000 µM: 4 mM; for cytotoxicity at 5000 µM: 5 mM; for cytotoxicity at 10000 µM: 10 mM
Experimental: (§1) Briefly, a […] MTT cytotoxicity assay was performed, which is based on the principle of uptake of MTT (3-(4,5-dimethylthiazol-2-yl)-2,5-diphenyl tetrazolium bromide), a tetrazolium salt, by the metabolically active cells where it is metabolized by active mitochondria into a blue colored formazan product that is read spectrophoto-metrically. MTT was dissolved in phosphate buffered saline with a pH of 7.4 to obtain an MTT concentration of 5 mg/ml; the resulting mixture was filtered through a 0.22 micron filter to sterilize and remove a small amount of insoluble residue. For each type of tumor cell, 20,000 to 50,000 cells were seeded in a 96-well culture plate and incubated with the combination in a CO2 incubator for 24 hours. […] The assay was terminated after 24 hours by adding 100 ug (20 ul) of MTT to each well, then incubating for additional one hour, and finally adding 50 ul of 10% SDS-0.01N HCl to each well to lyse the cells and dissolve formazan. After incubating for one hour, the plate was read spectrophotometrically at 540 nm and the percentage cytotoxicity calculated.

PA 1 = assay: MTT cytotoxicity assay, PA 1 ovary; assay type: cell-based; details: Homo sapiens; for cytotoxicity at 1000 µM / cytotoxicity at 2500 µM / cytotoxicity at 4000 µM / cytotoxicity at 5000 µM / cytotoxicity at 10000 µM: PA 1 Ovary, read-out: Percent cytotoxicity; for cytotoxicity at 1000 µM: 1.0 mM; for cytotoxicity at 2500 µM: 2.5 mM; for cytotoxicity at 4000 µM: 4 mM; for cytotoxicity at 5000 µM: 5 mM; for cytotoxicity at 10000 µM: 10 mM
Experimental: as §1

PTC = assay: MTT cytotoxicity assay, PTC colon; assay type: cell-based; details: Homo sapiens, read-out: Percent cytotoxicity; for cytotoxicity at 1000 µM: 1.0 mM; for cytotoxicity at 2500 µM: 2.5 mM; for cytotoxicity at 4000 µM: 4 mM; for cytotoxicity at 5000 µM: 5 mM; for cytotoxicity at 10000 µM: 10 mM
Experimental: as §1

Miapaca2 = assay: MTT cytotoxicity assay, Miapaca2 pancreas; assay type: cell-based; details: Homo sapiens, read-out: Percent cytotoxicity; for cytotoxicity at 1000 µM: MIA PaCa-2, 1.0 mM; for cytotoxicity at 2500 µM: MIA PaCa-2, 2.5 mM; for cytotoxicity at 4000 µM: MIA PaCa-2, 4 mM; for cytotoxicity at 5000 µM: MIA PaCa-2, 5 mM; for cytotoxicity at 10000 µM: MIA PaCa-2, 10 mM
Experimental: as §1

DU145 = assay: MTT cytotoxicity assay, DU145 prostate; assay type: cell-based; details: Homo sapiens, read-out: Percent cytotoxicity; for cytotoxicity at 1000 µM: DU-145, 1.0 mM; for cytotoxicity at 2500 µM: DU-145, 2.5 mM; for cytotoxicity at 4000 µM: DU-145, 4 mM; for cytotoxicity at 5000 µM: DU-145, 5 mM; for cytotoxicity at 10000 µM: DU-145, 10 mM
Experimental: as §1

L132 = assay: MTT cytotoxicity assay, L132 lung; assay type: cell-based; details: Homo sapiens, read-out: Percent cytotoxicity; for cytotoxicity at 1000 µM: 1.0 mM; for cytotoxicity at 2500 µM: 2.5 mM; for cytotoxicity at 4000 µM: 4 mM; for cytotoxicity at 5000 µM: 5 mM; for cytotoxicity at 10000 µM: 10 mM
Experimental: as §1

MCF7 = assay: MTT cytotoxicity assay, MCF7 breast; assay type: cell-based; details: Homo sapiens, MCF7 breast, read-out: Percent cytotoxicity; for cytotoxicity at 1000 µM: 1.0 mM; for cytotoxicity at 2500 µM: 2.5 mM; for cytotoxicity at 4000 µM: 4 mM; for cytotoxicity at 5000 µM: 5 mM; for cytotoxicity at 10000 µM: 10 mM
Experimental: as §1

Swiss albino mice = details: both, mouse, in vivo, po, 15 days
Experimental: Acute toxicity studies were performed using the oral route of administration.
A batch of 5 female and 5 male mice each was administered the test substance by oral route. […] Another batch of 5 female and 5 male served as control.
Observations were made three times on the day of dosing and twice daily thereafter for the remainder of 14 days or until reversible toxic signs or symptoms subsided. All gross visible toxic signs and symptoms were recorded. Body weights were recorded prior to dosing and weekly thereafter.

293 = assay: MTT cytotoxicity assay, 293 kidney; assay type: cell-based; details: Homo sapiens, HEK293, 24 h, read-out: ED50 values of cytotoxicity
Experimental: as §1

Molecule CC(=O)OC(C(C)=O)N1C(=O)CCC1C(=O)OCc1ccccc1 (centres unmarked) [MGC-6, N-(1-acetoxy-2-ketopropyl)-benzylpyroglutamate] has a cytotoxicity at 1000 µM (MOLT 4) of 41.9 ± 4.2%, a cytotoxicity at 2500 µM (MOLT 4) of 61.9 ± 5.3% and a cytotoxicity at 4000 µM (MOLT 4) of 84.9 ± 7.4%. The cytotoxicity at 5000 µM (MOLT 4) was 84.8 ± 3.9%, the cytotoxicity at 10000 µM (MOLT 4) was 87.1 ± 6.8% and the cytotoxicity at 1000 µM (PA 1) was 42.9 ± 4.9%. It also gave a cytotoxicity at 2500 µM (PA 1) of 63.9 ± 4.9%, a cytotoxicity at 4000 µM (PA 1) of 86.9 ± 6.9% and a cytotoxicity at 5000 µM (PA 1) of 88.7 ± 5.9%. For the same molecule, the cytotoxicity at 10000 µM (PA 1) was 84 ± 7.5%, the cytotoxicity at 1000 µM (PTC) was 38.9 ± 3.9% and the cytotoxicity at 2500 µM (PTC) was 59.7 ± 5.3%. The cytotoxicity at 4000 µM (PTC) was 75.9 ± 4%, the cytotoxicity at 5000 µM (PTC) was 80.6 ± 7.4% and the cytotoxicity at 10000 µM (PTC) was 86.4 ± 4%. For the same molecule, the cytotoxicity at 1000 µM (Miapaca2) was 0%, the cytotoxicity at 2500 µM (Miapaca2) was 23.7 ± 2% and the cytotoxicity at 4000 µM (Miapaca2) was 51.9 ± 5.2%. For the same molecule, the cytotoxicity at 5000 µM (Miapaca2) was 58.5 ± 5%, the cytotoxicity at 10000 µM (Miapaca2) was 67.4 ± 3% and the cytotoxicity at 1000 µM (DU145) was 37.8 ± 2.6%. The cytotoxicity at 2500 µM (DU145) was 56.9 ± 4.2%, the cytotoxicity at 4000 µM (DU145) was 78.9 ± 7.4% and the cytotoxicity at 5000 µM (DU145) was 81.5 ± 7.3%. The cytotoxicity at 10000 µM (DU145) was 85.9 ± 6.9%, the cytotoxicity at 1000 µM (L132) was 2.7 ± 0.2% and the cytotoxicity at 2500 µM (L132) was 34.8 ± 5.8%. For the same molecule, the cytotoxicity at 4000 µM (L132) was 53.9 ± 5%, the cytotoxicity at 5000 µM (L132) was 67.9 ± 5% and the cytotoxicity at 10000 µM (L132) was 74.7 ± 7.3%. It also gave a cytotoxicity at 1000 µM (MCF7) of 0%, a cytotoxicity at 2500 µM (MCF7) of 0% and a cytotoxicity at 4000 µM (MCF7) of 0%. It also gave a cytotoxicity at 5000 µM (MCF7) of 13.9 ± 1.1%, a cytotoxicity at 10000 µM (MCF7) of 23.9 ± 2.9% and a safe dose (Swiss albino mice) of 75 mg.
For CCOC(=O)C1CCC(=O)N1C(OC(C)=O)C(C)=O (centres unmarked) [MGC-8], the cytotoxicity at 1000 µM (MOLT 4) was 40.3 ± 2.9%, the cytotoxicity at 2500 µM (MOLT 4) was 58.3 ± 4.9% and the cytotoxicity at 4000 µM (MOLT 4) was 65 ± 5.9%. The cytotoxicity at 5000 µM (MOLT 4) was 75.2 ± 2.9%, the cytotoxicity at 10000 µM (MOLT 4) was 81.9 ± 5.2% and the IC50 (PA 1; 24 h, PA 1 Ovarian, read-out: ED50 values of cytotoxicity) was 1.8 ± 0.7 mM. For the same molecule, the cytotoxicity at 1000 µM (PA 1) was 38 ± 3.7%, the cytotoxicity at 2500 µM (PA 1) was 56 ± 4.8% and the cytotoxicity at 4000 µM (PA 1) was 64.5 ± 5.3%. For the same molecule, the cytotoxicity at 5000 µM (PA 1) was 69 ± 2.1%, the cytotoxicity at 10000 µM (PA 1) was 71.7 ± 6.3% and the cytotoxicity at 1000 µM (PTC) was 32.2 ± 3.9%. It also gave a cytotoxicity at 2500 µM (PTC) of 48.6 ± 2.9%, a cytotoxicity at 4000 µM (PTC) of 67.7 ± 4.8% and a cytotoxicity at 5000 µM (PTC) of 76.3 ± 1%. It also gave a cytotoxicity at 10000 µM (PTC) of 79.6 ± 3%, a cytotoxicity at 1000 µM (Miapaca2) of 0% and a cytotoxicity at 2500 µM (Miapaca2) of 61 ± 2.5%. For the same molecule, the cytotoxicity at 4000 µM (Miapaca2) was 89 ± 4.5%, the cytotoxicity at 5000 µM (Miapaca2) was 88 ± 4.5% and the cytotoxicity at 10000 µM (Miapaca2) was 86 ± 5%. It also gave a cytotoxicity at 1000 µM (DU145) of 43 ± 3.8%, a cytotoxicity at 2500 µM (DU145) of 67.4 ± 5.2% and a cytotoxicity at 4000 µM (DU145) of 69.9 ± 7.9%. The cytotoxicity at 5000 µM (DU145) was 73.5 ± 3%, the cytotoxicity at 10000 µM (DU145) was 79.3 ± 1.9% and the cytotoxicity at 1000 µM (L132) was 8 ± 1.5%. The cytotoxicity at 2500 µM (L132) was 12 ± 3.3%, the cytotoxicity at 4000 µM (L132) was 25 ± 3.5% and the cytotoxicity at 5000 µM (L132) was 35 ± 4.1%. The cytotoxicity at 10000 µM (L132) was 45 ± 5.1%, the cytotoxicity at 1000 µM (MCF7) was 16 ± 4.1% and the cytotoxicity at 2500 µM (MCF7) was 36 ± 3.5%. The cytotoxicity at 4000 µM (MCF7) was 70 ± 4.5%, the cytotoxicity at 5000 µM (MCF7) was 73 ± 6% and the cytotoxicity at 10000 µM (MCF7) was 87 ± 7%. It also gave an IC50 293 of 2.9 ± 0.5 mM and a safe dose (Swiss albino mice) of 100 mg.
